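GI50: concentration for 50% inhibition of growth. The concentration for full growth arrest is given as TGI.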
Key:
Experiment in all cases: NCI anticancer screen, dose series, 384-well format
[1] = tested on: BT-549 breast
[2] = tested on: MDA-MB-468 breast
[3] = tested on: HS 578T breast
[4] = tested on: T-47D breast
[5] = tested on: U251 glioblastoma
[6] = tested on: SK-MEL-5 melanoma
[7] = tested on: DU-145 prostate
[8] = tested on: M14 melanoma
[9] = tested on: CCRF-CEM leukemia
[10] = tested on: NCI/ADR-RES ovarian
[11] = tested on: 786-0 renal
[12] = tested on: HL-60(TB) leukemia
[13] = tested on: UACC-62 melanoma
[14] = tested on: MALME-3M melanoma
[15] = tested on: SW-620 colon
[16] = tested on: MOLT-4 leukemia
[17] = tested on: NCI-H226 lung
[18] = tested on: HOP-62 NSCLC
[19] = tested on: UACC-257 melanoma
[20] = tested on: CAKI-1 renal
[21] = tested on: HCC-2998 colon
[22] = tested on: SK-OV-3 ovarian
[23] = tested on: NCI-H23 lung
[24] = tested on: HCT-116 colon
[25] = tested on: K-562 leukemia
[26] = tested on: MDA-MB-435 melanoma
[27] = tested on: KM12 colon
[28] = tested on: HOP-92 NSCLC
[29] = tested on: RXF 393 renal
[30] = tested on: NCI-H522 lung
[31] = tested on: A549 NSCLC
[32] = tested on: LOX IMVI melanoma
[33] = tested on: RPMI-8226 leukemia
[34] = tested on: PC-3 prostate
[35] = tested on: OVCAR-4 ovarian
[36] = tested on: SF-268 CNS
[37] = tested on: HCT-15 colon
[38] = tested on: SF-539 CNS
[39] = tested on: COLO 205 colon
[40] = tested on: SF-295 CNS
[41] = tested on: OVCAR-3 ovarian
[42] = tested on: SK-MEL-28 melanoma
[43] = tested on: NCI-H322M lung
[44] = tested on: IGROV1 ovarian
[45] = tested on: SN12C renal
[46] = tested on: TK-10 renal
[47] = tested on: A498 renal
[48] = tested on: EKVX NSCLC
[49] = tested on: ACHN renal
[50] = tested on: SNB-75 CNS
[51] = tested on: MCF7 breast
[52] = tested on: UO-31 renal
[53] = tested on: HT29 colon
[54] = tested on: OVCAR-8 ovarian
[55] = tested on: SNB-19 CNS
[56] = tested on: MDA-MB-231 breast
[57] = tested on: NCI-H460 NSCLC
[58] = tested on: OVCAR-5 ovarian

With NC(=O)[C@@H](CCC(F)(F)F)N(Cc1ccc(-c2ncon2)cc1F)S(=O)(=O)c1ccc(Cl)cc1 the GI50 [1] was 17.2 µM, the TGI [1] was 32.2 µM and the GI50 [2] was 3.28 µM. The TGI [2] was 22.1 µM, the GI50 [3] was 12.6 µM and the TGI [3] was 25.2 µM. It also gave a GI50 [4] of 2.15 µM, a TGI [4] of 10.5 µM and a GI50 [5] of 17.3 µM. It also gave a TGI [5] of 31.1 µM, a GI50 [6] of 12.9 µM and a TGI [6] of 25.8 µM. The GI50 [7] was 19 µM, the TGI [7] was 36.4 µM and the GI50 [8] was 12.5 µM. For the same molecule, the TGI [8] was 25.1 µM, the GI50 [9] was 11.6 µM and the TGI [9] was 23.8 µM. The GI50 [10] was 17.1 µM, the TGI [10] was 32 µM and the GI50 [11] was 14.4 µM. The TGI [11] was 27.6 µM, the GI50 [12] was 14 µM and the TGI [12] was 27.1 µM. For the same molecule, the GI50 [13] was 11.4 µM, the TGI [13] was 23.6 µM and the GI50 [14] was 13.4 µM. For the same molecule, the TGI [14] was 26.2 µM, the GI50 [15] was 17.6 µM and the TGI [15] was 32.5 µM. The GI50 [16] was 5.98 µM, the TGI [16] was 19.8 µM and the GI50 [17] was 14.4 µM. It also gave a TGI [17] of 28.3 µM, a GI50 [18] of 14.7 µM and a TGI [18] of 28.1 µM. The GI50 [19] was 14.1 µM, the TGI [19] was 27.3 µM and the GI50 [20] was 15.9 µM. It also gave a TGI [20] of 30.9 µM, a GI50 [21] of 3.09 µM and a TGI [21] of 12.6 µM. For the same molecule, the GI50 [22] was 17.5 µM, the TGI [22] was 34.4 µM and the GI50 [23] was 14.6 µM. For the same molecule, the TGI [23] was 28.6 µM, the GI50 [24] was 15.2 µM and the TGI [24] was 28.8 µM. The GI50 [25] was 13.5 µM, the TGI [25] was 26.7 µM and the GI50 [26] was 13.5 µM. For the same molecule, the TGI [26] was 26.8 µM, the GI50 [27] was 15 µM and the TGI [27] was 28.7 µM. It also gave a GI50 [28] of 13.1 µM, a TGI [28] of 26.2 µM and a GI50 [29] of 11.7 µM. It also gave a TGI [29] of 23.9 µM, a GI50 [30] of 17.7 µM and a TGI [30] of 31.6 µM. The GI50 [31] was 14.6 µM, the TGI [31] was 28.1 µM and the GI50 [32] was 14.4 µM. The TGI [32] was 27.8 µM, the GI50 [33] was 13.6 µM and the TGI [33] was 26.6 µM. The GI50 [34] was 12.7 µM, the TGI [34] was 25.8 µM and the GI50 [35] was 14.7 µM. It also gave a TGI [35] of 28.1 µM, a GI50 [36] of 13 µM and a TGI [36] of 25.8 µM. For the same molecule, the GI50 [37] was 15.4 µM, the TGI [37] was 29.9 µM and the GI50 [38] was 17.7 µM. The TGI [38] was 31.7 µM, the GI50 [39] was 15.5 µM and the TGI [39] was 30.2 µM. It also gave a GI50 [40] of 17 µM, a TGI [40] of 31 µM and a GI50 [41] of 15.6 µM. For the same molecule, the TGI [41] was 29.1 µM, the GI50 [42] was 18.1 µM and the TGI [42] was 32.1 µM. The GI50 [43] was 15 µM, the TGI [43] was 29.5 µM and the GI50 [44] was 16.4 µM. The TGI [44] was 30.5 µM, the GI50 [45] was 16.7 µM and the TGI [45] was 30.5 µM. For the same molecule, the GI50 [46] was 18.3 µM, the TGI [46] was 36.4 µM and the GI50 [47] was 17.7 µM. The TGI [47] was 31.8 µM, the GI50 [48] was 15.8 µM and the TGI [48] was 31.4 µM. It also gave a GI50 [49] of 16 µM, a TGI [49] of 30 µM and a GI50 [50] of 14.1 µM. For the same molecule, the TGI [50] was 28.1 µM, the GI50 [51] was 14.5 µM and the TGI [51] was 28.3 µM. The GI50 [52] was 13 µM, the TGI [52] was 25.9 µM and the GI50 [53] was 14.2 µM. For the same molecule, the TGI [53] was 27.4 µM, the GI50 [54] was 17.1 µM and the TGI [54] was 31 µM. For the same molecule, the GI50 [55] was 16.9 µM, the TGI [55] was 31.5 µM and the GI50 [56] was 14.6 µM. It also gave a TGI [56] of 28.5 µM, a GI50 [57] of 15.5 µM and a TGI [57] of 29.2 µM. It also gave a GI50 [58] of 17.7 µM and a TGI [58] of 33.8 µM.

Reference: PubChem BioAssay (NCI)
